From US12403077B2, “Use of a new composition for preventing or slowing the appearance of signs of inflammation” (SOCIETE D'EXPLOITATION DE PRODUITS POUR LES INDUSTRIES …, priority 2018, dated 2025) come the findings set out here.

Marks after values point to notes of the source that are not given here.

The test system of one test is lipase. Briefly: Anti-lipase activity in tubo (1,2-diglyceride to glycerol, absorbance 570 nm). Type of test: biochemical. Conditions: positive reference, concentration not given. The procedure: The subject of the method is to study the capacity of a composition to provoke and regulate the activity of the lipase enzyme by an in tubo method, said enzyme having an inflammatory action. Lipase has the capacity to convert the colorless 1,2-diglyceride into glycerol, which is pink in color. The samples for the evaluation test are placed in tubo in the presence of lipase and of 1,2-diglyceride, and the absorbance of the samples is measured in a spectrophotometer at a wavelength of 570 nm at the end of their preparation, then after 60 minutes of incubation at 37° C. under the same spectral conditions. By virtue of a range of glycerol, the lipase activity of the samples can be calculated, as can the percentage inhibition, by the following formulas: Lipase activity=(amount of glycerol formed between 0 and 60 minutes)/(60 minutes×sample volume) Percentage inhibition=100×[(lipase activity of control group)−(lipase activity of test product)]/(lipase activity of control group) Statistical Elements: The values are expressed as means+/−standard deviation. The statistical analysis of the results was conducted using a two-sided Student test with a significance threshold set at 5%, by pairwise comparison of the series of values. […]

The next test concerns TLR-3. Put plainly: IL-8 and hBD2 production by normal human keratinocytes, TLR-3 activated by poly(I:C) (ELISA). Type of test: cell-based. To be noted: cells stimulated with poly(I:C), 100 nM. The procedure: The anti-inflammatory effect of compositions was evaluated on normal human keratinocytes under conditions imitating an imbalance in the cutaneous microbiota through the activation of 3 TLRs (Toll-Like Receptors). These receptors are activated by recognition of specific elements of the microbes, and their function is to alert the immune system in order to activate the body's defenses. In this model, the imbalance in the microbiota was modeled with various stimuli imitating a skin infection: • TLR-5 was activated by flagellin (the main protein of the flagellar filament, present in virtually all bacteria) • TLR-2 was activated by zymosan (glycoprotein complex extracted from yeast membranes) • TLR-3 was activated by poly(I:C) (a synthetic analog of the double-stranded RNA found in viruses)
The effect of the compositions tested was evaluated on the basis of their capacity to modulate the production of IL-8 and of hBD2 induced by these stimuli, using specific “ELISA” kits. The concentration of total proteins was also evaluated, in order to standardize the production of cytokin (IL-8) and of antimicrobial peptide (hBD2).
The values are expressed as means+/−sem [standard error of the mean=standard deviation/root (number of values)].
For each treatment, a calculation was made of: % protection=100×[mean (cells+treatment)−mean (stimulated cells)]/[mean (unstimulated cells)−mean (stimulated cells)] The statistical analysis of the results was conducted using a two-sided Student test with a significance threshold set at 5%, by pairwise comparison of the series of values. A difference between the efficacy of two products is considered to be: • significant if p<0.05; • “at the limit of significance” if 0.05≤p<0.1; • and not significant if p>0.1. B.2.2. Results Obtained In the three tables which follow: For stimulated cells: *** p<0.001 vs unstimulated cells. For treated and stimulated cells: *** p<0.001 vs stimulated cells. The results obtained following activation of TLR-5 by flagellin, the results are set out in table 10 below: […]

For `O=C1O[C@H]([C@@H](O)CO)C(O)=C1O` [Vitamin C], the Lipase activity in the test with lipase (60 minutes at 37° C., mean +/- standard deviation) is listed as 2.11 +/− 0.01 mU/mL. Further, in the test on lipase (vs control), the “% inhibition of the lipase” value was 50*** %.

As to `CO/C1=C\C(C)=C\[C@@H](C)[C@@H](O)[C@@H](C)C/C(C)=C/C=C/[C@H](OC)[C@@H]([C@@H](C)[C@@H](O)[C@H](C)[C@@]2(O)C[C@@H](O)[C@H](C)[C@@H](C(C)C)O2)OC1=O` [bafilomycin], in the test on TLR-3, the IL-8 is reported as less than 19 pg/mg proteins, the IL-8 % protection was determined as 100%*** and the hBD2 % protection is recorded as 100%***. The hBD2 in the test on TLR-3 (mean +/- sem) was 17 +/− 2 pg/mg proteins.
